The supplement of paper PMC10627819

What was measured:
Assay in all cases: fitness (endpoint OD595 vs no drug) (fraction); higher = more growth
S. pneumoniae D39V = system: S. pneumoniae D39V
In short: (§1)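 Each well of a 384-well plate received 30 µl of culture at OD595 0.01, or 55 µl for S. pneumoniae. TSB, LB Lennox or CY served as media at 37 °C. OD595 was taken every 30 min for 14 h and corrected by subtracting the first reading. Fitness is the optical density at stationary-phase entry divided by the robust mean of no-drug controls, capped at 1.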

S. aureus Newman = system: S. aureus Newman
In short: as §1

B. subtilis 168 = system: B. subtilis 168
In short: as §1

S. aureus DSM 20231 = system: S. aureus DSM 20231
In short: as §1

O=C(O)c1cn(C2CC2)c2cc(N3CCNCC3)c(F)cc2c1=O [Ciprofloxacin] + O=C(O)[C@H]1/C(=C/CO)O[C@@H]2CC(=O)N21 [Clavulanic acid]
Settings | fitness
B. subtilis 168, first compound 0.0098 µg/mL, partner 1.5 µg/mL | 0.912
B. subtilis 168, first compound 0.0098 µg/mL, partner 3 µg/mL | 0.85
B. subtilis 168, first compound 0.0098 µg/mL, partner 6 µg/mL | 0.717
B. subtilis 168, first compound 0.0195 µg/mL, partner 1.5 µg/mL | 0.758
B. subtilis 168, first compound 0.0195 µg/mL, partner 3 µg/mL | 0.643
B. subtilis 168, first compound 0.039 µg/mL, partner 1.5 µg/mL | 0.151
B. subtilis 168, first compound 0.039 µg/mL, partner 3 µg/mL | 0.0402
B. subtilis 168, first compound 0.039 µg/mL, partner 6 µg/mL | 0.0214
S. pneumoniae D39V, first compound 0.125 µg/mL, partner 0.5 µg/mL | 0.957
S. pneumoniae D39V, first compound 0.125 µg/mL, partner 1 µg/mL | 0.913
S. pneumoniae D39V, first compound 0.125 µg/mL, partner 2 µg/mL | 0.796
S. pneumoniae D39V, first compound 0.25 µg/mL, partner 0.5 µg/mL | 0.806
S. pneumoniae D39V, first compound 0.25 µg/mL, partner 1 µg/mL | 0.788

fitness, S. aureus Newman, one replicate
Settings | first compound 0.078 µg/mL | first compound 0.156 µg/mL | first compound 0.312 µg/mL
partner 0.03125 µg/mL | 0.709 | 0.283 | 0.143
partner 0.0625 µg/mL | 0.695 | 0.216 | 0.0875
partner 0.125 µg/mL | 0.699 | 0.211 | 0.116

CC(=O)Oc1ccccc1C(=O)O [Acetylsalicylic acid] + O=C(N[C@H](CO)[C@H](O)c1ccc([N+](=O)[O-])cc1)C(Cl)Cl [Chloramphenicol]
fitness, S. aureus DSM 20231
Settings | first compound 250 µg/mL | first compound 500 µg/mL | first compound 1000 µg/mL
partner 0.75 µg/mL | 0.688 | – | 0.307
partner 1.5 µg/mL | 0.498 | – | 0.225
partner 3 µg/mL | 0.136 | 0.098 | 0.0799

O=C(O)c1cn(C2CC2)c2cc(N3CCNCC3)c(F)cc2c1=O [Ciprofloxacin] + N[C@@H]1CONC1=O [Cycloserine D]
fitness
Settings | partner 0.125 µg/mL | partner 0.25 µg/mL | partner 0.375 µg/mL | partner 0.5 µg/mL | partner 0.75 µg/mL | partner 1.5 µg/mL
B. subtilis 168, first compound 0.0098 µg/mL | 0.891 | 0.85 | – | 0.901 | – | –
B. subtilis 168, first compound 0.0195 µg/mL | 0.684 | 0.653 | – | 0.679 | – | –
B. subtilis 168, first compound 0.039 µg/mL | 0.144 | 0.0682 | – | 0.12 | – | –
S. aureus Newman, first compound 0.0375 µg/mL | – | – | 0.7 | – | 0.682 | 0.689
S. aureus Newman, first compound 0.15 µg/mL | – | – | 0.0749 | – | 0.0416 | 0.047

CC(=O)Oc1ccccc1C(=O)O [Acetylsalicylic acid] + COc1cc(Cc2cnc(N)nc2N)cc(OC)c1OC [Trimethoprim]
fitness, S. aureus DSM 20231
Settings | partner 0.125 µg/mL | partner 0.25 µg/mL | partner 0.5 µg/mL | partner 1 µg/mL
first compound 250 µg/mL | 0.582 | 0.516 | 0.225 | 0.0606
first compound 500 µg/mL | – | – | 0.276 | 0.0647
first compound 1000 µg/mL | 0.4 | – | 0.23 | 0.0318

O=C(O)c1cn(C2CC2)c2cc(N3CCNCC3)c(F)cc2c1=O [Ciprofloxacin] + CO/N=C(\C(=O)N[C@@H]1C(=O)N2C(C(=O)O)=C(COC(C)=O)CS[C@H]12)c1csc(N)n1 [Cefotaxime]
Settings | fitness
B. subtilis 168, first compound 0.0098 µg/mL, partner 0.5 µg/mL | 0.141
B. subtilis 168, first compound 0.0098 µg/mL, partner 1 µg/mL | 0.0495
B. subtilis 168, first compound 0.0098 µg/mL, partner 2 µg/mL | 0.0625
B. subtilis 168, first compound 0.0195 µg/mL, partner 0.5 µg/mL | 0.0302
B. subtilis 168, first compound 0.0195 µg/mL, partner 1 µg/mL | 0.0272
B. subtilis 168, first compound 0.0195 µg/mL, partner 2 µg/mL | 0.0392
B. subtilis 168, first compound 0.039 µg/mL, partner 0.5 µg/mL | 0.0615
B. subtilis 168, first compound 0.039 µg/mL, partner 1 µg/mL | 0.0416
B. subtilis 168, first compound 0.039 µg/mL, partner 2 µg/mL | 0.0569
S. aureus Newman, first compound 0.0375 µg/mL, partner 0.078 µg/mL | 0.578
S. aureus Newman, first compound 0.0375 µg/mL, partner 0.156 µg/mL | 0.489
S. aureus Newman, first compound 0.0375 µg/mL, partner 0.625 µg/mL | 0.0622
S. aureus Newman, first compound 0.0375 µg/mL, partner 1.25 µg/mL | 0.0267
S. aureus Newman, first compound 0.0375 µg/mL, partner 2.5 µg/mL | 0.0312
S. aureus Newman, first compound 0.075 µg/mL, partner 0.078 µg/mL | 0.518
S. aureus Newman, first compound 0.075 µg/mL, partner 0.625 µg/mL | 0.0809
S. aureus Newman, first compound 0.075 µg/mL, partner 1.25 µg/mL | 0.0731
S. aureus Newman, first compound 0.075 µg/mL, partner 2.5 µg/mL | 0.0893
S. aureus Newman, first compound 0.15 µg/mL, partner 0.078 µg/mL | 0.0493
S. aureus Newman, first compound 0.15 µg/mL, partner 0.156 µg/mL | 0.0219
S. aureus Newman, first compound 0.15 µg/mL, partner 0.625 µg/mL | 0.0244
S. aureus Newman, first compound 0.15 µg/mL, partner 1.25 µg/mL | 0.0309
S. aureus Newman, first compound 0.15 µg/mL, partner 2.5 µg/mL | 0.0543
S. pneumoniae D39V, first compound 0.125 µg/mL, partner 0.0018 µg/mL | 0.992
S. pneumoniae D39V, first compound 0.125 µg/mL, partner 0.0035 µg/mL | 0.95
S. pneumoniae D39V, first compound 0.25 µg/mL, partner 0.0018 µg/mL | 0.919
S. pneumoniae D39V, first compound 0.25 µg/mL, partner 0.0035 µg/mL | 0.962
S. pneumoniae D39V, first compound 0.25 µg/mL, partner 0.007 µg/mL | 0.873
S. pneumoniae D39V, first compound 0.5 µg/mL, partner 0.0018 µg/mL | 0.809
S. pneumoniae D39V, first compound 0.5 µg/mL, partner 0.0035 µg/mL | 0.803

fitness, one replicate
Settings | partner 0.00775 µg/mL | partner 0.0155 µg/mL | partner 0.031 µg/mL | partner 0.039 µg/mL | partner 0.0625 µg/mL | partner 0.125 µg/mL | partner 0.25 µg/mL | partner 0.312 µg/mL
B. subtilis 168, first compound 0.0098 µg/mL | 0.764 | 0.594 | 0.347 | – | 0.475 | 0.333 | 0.263 | –
B. subtilis 168, first compound 0.0195 µg/mL | 0.546 | 0.205 | 0.063 | – | 0.231 | 0.129 | 0.0436 | –
B. subtilis 168, first compound 0.039 µg/mL | 0.0504 | 0.0283 | 0.045 | – | 0.0338 | 0.0283 | 0.0507 | –
S. aureus Newman, first compound 0.0375 µg/mL | – | – | – | 0.633 | – | – | – | 0.217
S. aureus Newman, first compound 0.075 µg/mL | – | – | – | 0.691 | – | – | – | 0.0389
S. aureus Newman, first compound 0.15 µg/mL | – | – | – | 0.0625 | – | – | – | 0.0381
